Source: patent US12404262B2 (priority 2021, dated 2025)
≈ marks a conversion by molar mass, not a printed value. Read-outs that look alike come from different tables or passages of the source.

Tests used:
[1] = Oral bioavailability PK in dog; format: in vivo; settings: dog (Beagle), oral gavage, solution vehicle 5% ethanol, 20% propylene glycol, 75% water; based on exposure of Intermediate 5 in plasma
physchem = settings: 25 °C, thermodynamic from solid
[2] = 0.1N HCl, 1.0% DMSO, 24-hour incubation at ambient temperature, maximum theoretical 100 μM, first value of the cell
[3] = 1×PBS buffer (pH 7.4), 1.0% DMSO, 24-hour incubation at ambient temperature, maximum theoretical 100 μM, second value of the cell

Dog F % (solution) [1] [%] | Compound | pH 2 solubility [2] [μM] | pH 7 solubility [3] [μM] | pH 2 solubility (pH 2) | pH 7 solubility (pH 7.4) | solubility (physchem; fassif) [mg/mL] | solubility (physchem; fessif) [mg/mL]
16 | CC(C)(C#Cc1ccc(-c2ccc(Cl)c3c(NS(C)(=O)=O)nn(CC(F)(F)F)c23)c([C@H](Cc2cc(F)cc(F)c2)NC(=O)Cn2nc(C(F)(F)F)c3c2C(F)(F)[C@@H]2C[C@H]32)n1)S(C)(=O)=O [Intermediate 5, N—((S)-1-(3-(4-chloro-3-(methylsulfonamido)-1-(2,2,2-trifluoroethyl)-1H-indazol-7-yl)-6-(3-methyl-3-(methylsulfonyl)but-1-yn-1-yl)pyridin-2-yl)-2-(3,5-difluorophenyl)ethyl)-2-((3bS,4aR)-5,5-difluoro-3-(trifluoromethyl)-3b,4,4a,5-tetrahydro-1H-cyclopropa[3,4]cyclopenta[1,2-c]pyrazol-1-yl)acetamide, reference compound] | 0.11 | 0.32 |  |  |  | 
 | CC(C)(C#Cc1ccc(-c2ccc(Cl)c3c(N(C(=O)O[C@H](CNC(=O)OCOP(=O)(O)O)CC(=O)O)S(C)(=O)=O)nn(CC(F)(F)F)c23)c([C@H](Cc2cc(F)cc(F)c2)NC(=O)Cn2nc(C(F)(F)F)c3c2C(F)(F)[C@@H]2C[C@H]32)n1)S(C)(=O)=O [Compound 136, (S)-3-(((4-chloro-7-(2-((S)-1-(2-((3bS,4aR)-5,5-difluoro-3-(trifluoromethyl)-3b,4,4a,5-tetrahydro-1H-cyclopropa[3,4]cyclopenta[1,2-c]pyrazol-1-yl)acetamido)-2-(3,5-difluorophenyl)ethyl)-6-(3-methyl-3-(methylsulfonyl)but-1-yn-1-yl)pyridin-3-yl)-1-(2,2,2-trifluoroethyl)-1H-indazol-3-yl)(methylsulfonyl)carbamoyl)oxy)-4-((((phosphonooxy)methoxy)carbonyl)amino)butanoic acid] |  |  | 3/57 μM | 3/57 μM | 1.49 (≈ 1180 µM) | 2.91 (≈ 2300 µM)
 | CN(CC(=O)OCOP(=O)(O)O)C(=O)N(c1nn(CC(F)(F)F)c2c(-c3ccc(C#CC(C)(C)S(C)(=O)=O)nc3[C@H](Cc3cc(F)cc(F)c3)NC(=O)Cn3nc(C(F)(F)F)c4c3C(F)(F)[C@@H]3C[C@H]43)ccc(Cl)c12)S(C)(=O)=O [Compound 84, (phosphonooxy)methyl N-((4-chloro-7-(2-((S)-1-(2-((3bS,4aR)-5,5-difluoro-3-(trifluoromethyl)-3b,4,4a,5-tetrahydro-1H-cyclopropa[3,4]cyclopenta[1,2-c]pyrazol-1-yl)acetamido)-2-(3,5-difluorophenyl)ethyl)-6-(3-methyl-3-(methylsulfonyl)but-1-yn-1-yl)pyridin-3-yl)-1-(2,2,2-trifluoroethyl)-1H-indazol-3-yl)(methylsulfonyl)carbamoyl)-N-methylglycinate] | 5 | 16 |  |  | 0.154 (≈ 129 µM) | 
 | C[C@@H](C(=O)O)N(CCOC(=O)N(c1nn(CC(F)(F)F)c2c(-c3ccc(C#CC(C)(C)S(C)(=O)=O)nc3[C@H](Cc3cc(F)cc(F)c3)NC(=O)Cn3nc(C(F)(F)F)c4c3C(F)(F)[C@@H]3C[C@H]43)ccc(Cl)c12)S(C)(=O)=O)C(=O)OCOP(=O)(O)O [Compound 132, N-(2-(((4-chloro-7-(2-((S)-1-(2-((3bS,4aR)-5,5-difluoro-3-(trifluoromethyl)-3b,4,4a,5-tetrahydro-1H-cyclopropa[3,4]cyclopenta[1,2-c]pyrazol-1-yl)acetamido)-2-(3,5-difluorophenyl)ethyl)-6-(3-methyl-3-(methylsulfonyl)but-1-yn-1-yl)pyridin-3-yl)-1-(2,2,2-trifluoroethyl)-1H-indazol-3-yl)(methylsulfonyl)carbamoyl)oxy)ethyl)-N-(((phosphonooxy)methoxy)carbonyl)-L-alanine] | 1 | 79 |  |  | 1.63 (≈ 1270 µM) | 
 | CC(C)(C#Cc1ccc(-c2ccc(Cl)c3c(N(C(=O)OCCN(CCC(=O)O)C(=O)OCOP(=O)(O)O)S(C)(=O)=O)nn(CC(F)(F)F)c23)c([C@H](Cc2cc(F)cc(F)c2)NC(=O)Cn2nc(C(F)(F)F)c3c2C(F)(F)[C@@H]2C[C@H]32)n1)S(C)(=O)=O [Compound 135, 3-((2-(((4-chloro-7-(2-((S)-1-(2-((3bS,4aR)-5,5-difluoro-3-(trifluoromethyl)-3b,4,4a,5-tetrahydro-1H-cyclopropa[3,4]cyclopenta[1,2-c]pyrazol-1-yl)acetamido)-2-(3,5-difluorophenyl)ethyl)-6-(3-methyl-3-(methylsulfonyl)but-1-yn-1-yl)pyridin-3-yl)-1-(2,2,2-trifluoroethyl)-1H-indazol-3-yl)(methylsulfonyl)carbamoyl)oxy)ethyl)(((phosphonooxy)methoxy)carbonyl)amino)propa noic acid] | 1 | 100 |  |  | 1.29 (≈ 1010 µM) | 
